Data reported in patent publication US11453663B2, “Substituted propanamides as inhibitors of nucleases” (MASARYKOVA UNIVERZITA, priority 2018, dated 2022).

Columns and labels:
MRE11 = MRE11 (Homo sapiens (Human), UniProt P49959); assay: HTS nuclease assay (fluorescence-quenched 5′ overhang DNA substrate cleavage); format: biochemical; conditions: 18 nM MRE11, 40 nM DNA substrate, analysis at t=4 h
Procedure: DNA Substrate Preparation
The DNA substrate is prepared by mixing the oligonucleotides listed below in a 1:1 ratio to reach a final concentration of 6 μM in a buffer containing 50 mM Tris pH 7.5, 100 mM NaCl and 8 mM MgCl2.
The mixture is heat for 3 min at 65° C. and let to cool down slowly to RT. Then it is stored at −20° C.
This substrate is a 5′ overhang, which is a preferred substrate of MRE11. […] The fluorescence increases upon substrate cleavage by MRE11, when separation of the two labels occur.
The conditions of the assay are as follows:
Total reaction volume: 5 μL
DNA substrate concentration in the reaction: 40 nM
Inhibitor concentration range tested: 7 nM-50 μM
Each plate contains a series of high and low signal control wells, where no compound is added:
High signal: MRE11+DNA substrate
Low signal: DNA substrate only
These are used during data evaluation.
Two Extra Assay Controls:
1) To check whether unwinding of DNA by the compounds alone occurs.
The DNA substrate [CY5+BBQ(650)] is mixed with the compounds with no protein present.
The CY5 single stranded oligo is mixed with the compounds with no protein present.
The layout of the plates is created by the in-house software (CZ-Openscreen Prague) and this information is transferred to the robotic HTS station.
The reaction is started by the addition of DNA and the reaction time is counted from that moment, including a 15 min delay. Ten timepoints are measured:
The assay data analysis was performed at t=4 h. This corresponds to the time when the reaction is close to its maximum.
The data analysis was performed using the in-house software (CZ-Openscreen Prague) to obtain IC50 for each compound.

DR-GFP U2OS cells = assay: HR assay (GFP fluorescence by flow cytometry after I-SceI transfection); format: cell-based; conditions: Homo sapiens, 25 μM inhibitor, 72 hours after transfection
Procedure: DR-GFP U2OS cells (Methods in Molecular Biology 2012, 920, 379.) were transfected with 2.5 μg of I-SceI-expressing pCAGGS vector and treated with the inhibitors at 25 μM concentration. 72 hours after the transfection, the cells were trypsinized and resuspended in 3% BSA in PBS. GFP fluorescence detection was carried out using a BD FACSVerse flow cytometer and data analyzed with FlowJo software.

Sequence of MRE11 (P49959 whole entry): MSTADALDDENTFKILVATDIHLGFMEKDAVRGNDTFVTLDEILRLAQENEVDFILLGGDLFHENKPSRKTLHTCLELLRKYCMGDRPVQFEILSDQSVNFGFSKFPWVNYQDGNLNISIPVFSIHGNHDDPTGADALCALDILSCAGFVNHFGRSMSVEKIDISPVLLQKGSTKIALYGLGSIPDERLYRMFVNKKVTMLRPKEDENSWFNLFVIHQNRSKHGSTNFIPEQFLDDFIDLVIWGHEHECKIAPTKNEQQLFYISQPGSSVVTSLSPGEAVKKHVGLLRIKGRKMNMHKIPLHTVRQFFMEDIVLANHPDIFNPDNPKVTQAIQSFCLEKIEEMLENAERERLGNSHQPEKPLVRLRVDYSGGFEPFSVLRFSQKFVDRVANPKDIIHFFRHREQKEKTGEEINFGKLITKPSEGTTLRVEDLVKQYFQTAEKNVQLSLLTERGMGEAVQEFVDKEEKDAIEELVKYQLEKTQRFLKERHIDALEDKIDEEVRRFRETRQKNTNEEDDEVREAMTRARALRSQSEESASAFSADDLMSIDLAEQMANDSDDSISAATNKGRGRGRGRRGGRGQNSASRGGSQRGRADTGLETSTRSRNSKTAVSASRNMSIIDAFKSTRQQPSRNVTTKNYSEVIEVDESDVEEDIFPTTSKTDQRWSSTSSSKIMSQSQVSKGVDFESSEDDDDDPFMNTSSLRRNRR

Row | IC50 (MRE11) | Compound | inhibition at 25 µM (DR-GFP U2OS cells)
1 | 2 to 10 µM | Cc1cccc(-c2csc(NC(=O)C(C#N)Cc3ccc(O)c(O)c3)n2)n1 (stereo not shown) [Preparative Example 158, 2-cyano-3-(3,4-dihydroxyphenyl)-N-(4-(6-methylpyridin-2-yl)thiazol-2-yl)propanamide] | > 75%
2 | 2 to 10 µM | N#CC(Cc1ccc(O)c(O)c1)C(=O)Nc1nc(-c2ccsc2)cs1 (stereo not shown) [Preparative Example 145, 2-cyano-3-(3,4-dihydroxyphenyl)-N-(4-(thiophen-3-yl)thiazol-2-yl)propanamide] | < 50%
3 | < 2 µM | COc1ccc(-c2csc(NC(=O)C(C#N)Cc3ccc(O)c(O)c3)n2)c(F)c1 (stereo not shown) [Preparative Example 173, 2-cyano-3-(3,4-dihydroxyphenyl)-N-(4-(2-fluoro-4-methoxyphenyl)thiazol-2-yl)propanamide] | > 75%
4 | 2 to 10 µM | N#CC(Cc1ccc(O)c(O)c1)C(=O)Nc1nc(-c2cccc(Cl)c2)cs1 (stereo not shown) [Preparative Example 162, N-(4-(3-chlorophenyl)thiazol-2-yl)-2-cyano-3-(3,4-dihydroxyphenyl)propanamide] | 50 to 75%
5 | < 2 µM | N#CC(Cc1ccc(O)c(O)c1)C(=O)Nc1nc(-c2ncccc2F)cs1 (stereo not shown) [Preparative Example 172, 2-cyano-3-(3,4-dihydroxyphenyl)-N-(4-(3-fluoropyridin-2-yl)thiazol-2-yl)propanamide] | > 75%
6 | < 2 µM | COc1ccc(-c2csc(NC(=O)C(C#N)Cc3ccc(O)c(O)c3)n2)nc1 (stereo not shown) [Preparative Example 168, 2-cyano-3-(3,4-dihydroxyphenyl)-N-(4-(5-methoxypyridin-2-yl)thiazol-2-yl)propanamide] | > 75%
7 | 2 to 10 µM | CC(C)c1ccc(-c2csc(NC(=O)C(C#N)Cc3ccc(O)c(O)c3)n2)cc1 (stereo not shown) [Preparative Example 166, 2-cyano-3-(3,4-dihydroxyphenyl)-N-(4-(4-isopropylphenyl)thiazol-2-yl)propanamide] | > 75%
8 | 2 to 10 µM | N#Cc1ccc(-c2csc(NC(=O)C(C#N)Cc3ccc(O)c(O)c3)n2)cc1 (stereo not shown) [Preparative Example 131, 2-cyano-N-(4-(4-cyanophenyl)thiazol-2-yl)-3-(3,4-dihydroxyphenyl)propanamide] | 50 to 75%
9 | 2 to 10 µM | COc1cccc(-c2csc(NC(=O)C(C#N)Cc3ccc(O)c(O)c3)n2)n1 (stereo not shown) [Preparative Example 170, 2-cyano-3-(3,4-dihydroxyphenyl)-N-(4-(6-methoxypyridin-2-yl)thiazol-2-yl)propanamide] | 50 to 75%
10 | < 2 µM | N#CC(Cc1ccc(O)c(O)c1)C(=O)Nc1nc(-c2ccc(Cl)cc2Cl)cs1 (stereo not shown) [Preparative Example 171, 2-cyano-N-(4-(2,4-dichlorophenyl)thiazol-2-yl)-3-(3,4-dihydroxyphenyl)propanamide] | > 75%
11 | 2 to 10 µM | Cc1cc(-c2csc(NC(=O)C(C#N)Cc3ccc(O)c(O)c3)n2)cs1 (stereo not shown) [Preparative Example 152, 2-cyano-3-(3,4-dihydroxyphenyl)-N-(4-(5-methylthiophen-3-yl)thiazol-2-yl)propanamide] | < 50%

More lines, now with the values behind:

Row | Compound | IC50 (MRE11) | inhibition at 25 µM (DR-GFP U2OS cells)
12 | N#CC(Cc1ccc(O)c(O)c1)C(=O)Nc1nc(-c2ccc3c(c2)CCCC3)cs1 (stereo not shown) [Preparative Example 153, 2-cyano-3-(3,4-dihydroxyphenyl)-N-(4-(5,6,7,8-tetrahydronaphthalen-2-yl)thiazol-2-yl)propanamide] | 2 to 10 µM | > 75%
13 | N#Cc1cc(CC(C#N)C(=O)Nc2nc(-c3ccccc3)cs2)ccc1O (stereo not shown) [Preparative Example 151, 2-cyano-3-(3-cyano-4-hydroxyphenyl)-N-(4-phenylthiazol-2-yl)propanamide] | 10 to 90 µM | < 50%
14 | N#CC(Cc1cc(Cl)c(O)c(Cl)c1)C(=O)Nc1nc(-c2ccc(OC(F)(F)F)cc2)cs1 (stereo not shown) [Preparative Example 137, 2-cyano-3-(3,5-dichloro-4-hydroxyphenyl)-N-(4-(4-(trifluoromethoxy)phenyl)thiazol-2-yl)propanamide] | 2 to 10 µM | < 50%
15 | N#CC(Cc1ccc(O)c(O)c1)C(=O)Nc1nc(-c2cccc(-c3ccccc3)c2)cs1 (stereo not shown) [Preparative Example 138, N-(4-([1,1′-biphenyl]-3-yl)thiazol-2-yl)-2-cyano-3-(3,4-dihydroxyphenyl)propanamide] | 2 to 10 µM | > 75%
16 | N#CC(Cc1ccc(O)c(O)c1)C(=O)Nc1nc(-c2ccc(C(F)(F)F)cc2)cs1 (stereo not shown) [Preparative Example 132, 2-cyano-3-(3,4-dihydroxyphenyl)-N-(4-(4-(trifluoromethyl)phenyl)thiazol-2-yl)propanamide] | 2 to 10 µM | > 75%
17 | N#CC(Cc1ccc(O)c(O)c1)C(=O)Nc1nc(-c2ccccc2C(F)(F)F)cs1 (stereo not shown) [Preparative Example 159, 2-cyano-3-(3,4-dihydroxyphenyl)-N-(4-(2-(trifluoromethyl)phenyl)thiazol-2-yl)propanamide] | 2 to 10 µM | < 50%
18 | Cc1cc(CC(C#N)C(=O)Nc2nc(-c3ccc(C(C)(C)C)cc3)cs2)cc(C)c1O (stereo not shown) [Preparative Example 149, N-(4-(4-(tert-butyl)phenyl)thiazol-2-yl)-2-cyano-3-(4-hydroxy-3,5-dimethylphenyl)propanamide] | 10 to 90 µM | > 75%
19 | CC(C)(C)c1cc(CC(C#N)C(=O)Nc2nc(-c3ccccn3)cs2)cc(C(C)(C)C)c1O (stereo not shown) [Preparative Example 169, 2-cyano-3-(3,5-di-tert-butyl-4-hydroxyphenyl)-N-(4-(pyridin-2-yl)thiazol-2-yl)propanamide] | 10 to 90 µM | > 75%
20 | N#CC(Cc1ccc2nc[nH]c2c1)C(=O)Nc1nc(-c2ccccc2)cs1 (stereo not shown) [Preparative Example 142, 3-(1H-benzo[d]imidazol-6-yl)-2-cyano-N-(4-phenylthiazol-2-yl)propanamide] | 10 to 90 µM | < 50%
21 | N#CC(Cc1ccc(O)c(O)c1)C(=O)Nc1nc(-c2ccc(C3CCCCC3)cc2)cs1 (stereo not shown) [Preparative Example 154, 2-cyano-N-(4-(4-cyclohexylphenyl)thiazol-2-yl)-3-(3,4-dihydroxyphenyl)propanamide] | 2 to 10 µM | > 75%
22 | CC(=O)Nc1ccc(CC(C#N)C(=O)Nc2nc(-c3ccccc3)cs2)cc1 (stereo not shown) [Preparative Example 128, 3-(4-acetamidophenyl)-2-cyano-N-(4-phenylthiazol-2-yl)propanamide] | – | 50 to 75%
23 | CC(c1ccc(O)c(O)c1)C(C#N)C(=O)Nc1nc(-c2ccccc2)cs1 (stereo not shown) [Preparative Example 177, 2-cyano-3-(3,4-dihydroxyphenyl)-N-(4-phenylthiazol-2-yl)butanamide] | – | 50 to 75%
24 | CC(C)(C)c1ccc(-c2csc(NC(=O)C(C#N)Cc3cc(C(C)(C)C)c(O)c(C(C)(C)C)c3)n2)cc1 (stereo not shown) [Preparative Example 150, N-(4-(4-(tert-butyl)phenyl)thiazol-2-yl)-2-cyano-3-(3,5-di-tert-butyl-4-hydroxyphenyl)propanamide] | – | > 75%
25 | N#CC(Cc1cc(C(F)(F)F)cc(C(F)(F)F)c1)C(=O)Nc1nc(-c2ccccc2)cs1 (stereo not shown) [Preparative Example 163, 3-(3,5-bis(trifluoromethyl)phenyl)-2-cyano-N-(4-phenylthiazol-2-yl)propanamide] | – | > 75%
